Experimental data: PMC4080980, “The pharmacokinetics of anthocyanins and their metabolites in humans” (British Journal of Pharmacology, 2014)
Marks after values point to notes of the source that are not given here.

Experiments:
[1] = set-up: method as in Czank et al., 2013; details: ref Czank et al., 2013, cited from earlier work
[2] = Faecal recovery after 500 mg oral bolus of 13C5-C3G; assay type: in vivo, humans; details: faeces, 500 mg oral 13C5-C3G; for Recovery 6–24 h / Recovery 24–48 h: mean ± SEM
Method: The study was conducted at the Clinical Research and Trials Unit at the University of East Anglia according to the principles expressed in the Declaration of Helsinki and was approved by the Cambridgeshire 3 Research Ethics Committee (REC ref: 10/H0306/42) and registered at clinicaltrials.gov as NCT01106729.
Sample extracts (5 μL) were injected onto a Kinetex PFP column (Phenomonex) and separated using an Agilent 1200 series HPLC with a QTrap 4000 linear ion trap mass spectrometer (ABSciex, Warrington, UK). […] Metabolite identification was performed by multiple reaction monitoring (MRM) optimized for the detection of pure standards with m/z of the parent and daughter fragments adjusted to +2,+3,+5 amu to allow identification of the ^13C-labelled metabolites derived from the B-ring, A-ring or the parent structure respectively. […] The HPLC-ESI-MS/MS method was validated for linearity and precision across all metabolites.
Pharmacokinetic parameters were established for each individual analyte and presented as mean ± SEM. Urine samples collected during the first 6 h post-bolus were grouped together to the nearest hour time point (i.e. samples were not pooled but individual concentrations were averaged post-quantification) for graphical representation and to calculate total cumulative recovery. The concentration of metabolites was converted to amount recovered from urine by accounting for the molecular weight of the individual ^13C-labelled metabolites and the volume of the individual participants void and averaged across participants. […] Urine and faecal recovery amounts are presented as mean ± SEM (n = 8), unless otherwise stated.

[3] = Urinary elimination/recovery after 500 mg oral bolus of 13C5-C3G; assay type: in vivo, humans; details: urine, single 500 mg oral 13C5-C3G; for Tmax: male, human, po, 500 mg, urine collection interval, read-out: Time at maximum concentration; for Total recovery: 0-48 h; for Total recovery / Maximum concentration: mean ± SEM
Method: (§1) A detailed description of the clinical design was previously published ([Czank et al., 2013]). Briefly, a single 500 mg oral bolus dose of isotopically labelled C3G (^13C5-C3G) was fed to eight healthy male participants (body mass index, 18.5–30.5 kg·m^–2; aged 18–45 years) after an overnight fast (>8 h). Participants provided blood (baseline, 0.5, 1, 2, 4, 6, 24, 48 h), urine (individual voids between 0 and 6 h, total voids between 6–24 and 24–48 h), breath (baseline, 0.5, 1, 2, 4, 6, 24, 48 h) and faecal samples (all voids between 0–6, 6–24 and 24–48 h). The study was conducted at the Clinical Research and Trials Unit at the University of East Anglia according to the principles expressed in the Declaration of Helsinki and was approved by the Cambridgeshire 3 Research Ethics Committee (REC ref: 10/H0306/42) and registered at clinicaltrials.gov as NCT01106729.
(§2) Serum, urine and faecal samples were extracted by SPE and analysed by HPLC-ESI-MS/MS as recently described ([Czank et al., 2013]). The extraction efficiency was established as 87 ± 11% (coefficient of variation, CV; 6.8 ± 0.7%) for serum, 88 ± 18% (CV, 7.9 ± 0.8%) for urine and 81 ± 21% (CV, 14.1 ± 1.2%) for faeces (n = 3 replicates for each analyte). Sample extracts (5 μL) were injected onto a Kinetex PFP column (Phenomonex) and separated using an Agilent 1200 series HPLC with a QTrap 4000 linear ion trap mass spectrometer (ABSciex, Warrington, UK). […] Metabolite identification was performed by multiple reaction monitoring (MRM) optimized for the detection of pure standards with m/z of the parent and daughter fragments adjusted to +2,+3,+5 amu to allow identification of the ^13C-labelled metabolites derived from the B-ring, A-ring or the parent structure respectively. Metabolites were confirmed on the basis of retention time (using authentic and synthesized standards where possible) and three or more ion transitions. The HPLC-ESI-MS/MS method was validated for linearity and precision across all metabolites. Six point standard curves ranging from 1.25 to 20 μM were constructed from analytical standards and injected six times. The precision was established as 1.4–11.0% and linearity of the standard curves was established as r^2 = 0.991–1.000 (CV, 0.2%) across the identified metabolites.
(§3) Pharmacokinetic modelling of metabolites in the serum was performed with the PKSolver ‘add-on’ for Excel 2010 (Microsoft, […], USA) ([Zhang et al., 2010]) using non-compartmental analysis with the AUC calculated using the trapezoidal rule. Pharmacokinetic parameters were established for each individual analyte and presented as mean ± SEM. Urine samples collected during the first 6 h post-bolus were grouped together to the nearest hour time point (i.e. samples were not pooled but individual concentrations were averaged post-quantification) for graphical representation and to calculate total cumulative recovery. The concentration of metabolites was converted to amount recovered from urine by accounting for the molecular weight of the individual ^13C-labelled metabolites and the volume of the individual participants void and averaged across participants. Recovery of metabolites in the faeces was established from the molecular weight of the ^13C-labelled metabolite and the weight of the individual participants void adjusting for faecal water content as previously described ([Czank et al., 2013]). Urine and faecal recovery amounts are presented as mean ± SEM (n = 8), unless otherwise stated.

[4] = Serum pharmacokinetics after 500 mg oral bolus of 13C5-C3G (HPLC-ESI-MS/MS, non-compartmental analysis); assay type: in vivo, humans; details: for Cmax: healthy men, mean ± SEM of participants in whom detected; for AUC(0-t) / AUC0-48: trapezoidal rule; for AUC(0-t): read-out: AUC0-48
Method: as §1, §2, §3

[5] = system: LPS-induced RAW 264.7 cells; set-up: method as in Min et al., 2010; details: ref Min et al., 2010; cited from earlier work
[6] = system: plasma VCAM-1; set-up: method as in Wang et al., 2010; details: mice fed PCA; ref Wang et al., 2010; cited from earlier work
[7] = system: vascular cell adhesion molecule-1 (VCAM-1); set-up: method as in Wang et al., 2010; details: TNF-α-induced mouse aortic endothelial cells; ref Wang et al., 2010; cited from earlier work
[8] = system: plasma IL-6; set-up: method as in Kim et al., 2010; details: vanillic acid fed mice; ref Kim et al., 2010; cited from earlier work
[9] = male, human, serum, po, 500 mg, serum elimination half-life, single 500 mg oral 13C5-C3G, mean ± SEM
[10] = male, human, serum, po, 500 mg, serum, single 500 mg oral 13C5-C3G, mean ± SEM, read-out: tmax
[11] = male, human, serum, po, 500 mg, single 500 mg oral 13C5-C3G
[12] = male, human, serum, single 500 mg oral 13C5-C3G, mean ± SEM
[13] = serum, single 500 mg oral 13C5-C3G
[14] = serum, single 500 mg oral 13C5-C3G, mean ± SEM

SMILES | Recovery 6–24 h [2] | Recovery 24–48 h [2] | Tmax [3] [h] | Total recovery [3] [µg] | Maximum concentration [3] [nM] | half-life [4, 9] [h] | Tmax [4, 10] [h] | Cmax [4, 11] [nM] | AUC(0-t) [4, 12] [µM·h] | Cmax [4, 13] [nM] | Tmax [4, 14] [h] | AUC0-48 [4, 14] [µM·h] | other results
OCC1OC(Oc2cc3c(O)cc(O)cc3[o+]c2-c2ccc(O)c(O)c2)C(O)C(O)C1O (stereo not shown) [Cyanidin-3-glucoside, 6,8,10,3′,5′-^13C5-cyanidin-3-glucoside] | 70.0 ^b μg | 19.6 ^b μg | 1 to 2 | 120.0 ± 54.1 | 334 ± 145 | 0.4 | 1.8 ± 0.2 | 141 ± 70 | 0.279 ± 0.17 | – | – | – | relative bioavailability ([1]; based on recovery of the 13C-label in urine and breath): 12.4 ± 1.4%; recovered 13C-label in faeces [1]: 32 ± 6%; recovery of the initial dose of 13C within the urine sample [1]: 12%; share of the total metabolites found in the circulation ([4]; serum, 500 mg oral 13C5-C3G): 2%
COc1ccc(C(=O)O)cc1O [IsoVA] | 11.0 ^b μg | 8.5 ^b μg | – | 79.5 ± 54.2 | 212 ± 130 | – | – | – | – | 195 | 2.0 | 0.189 | –
COC(=O)c1ccc(O)c(O)c1 [Methyl-3,4-dihydroxybenzoate] | 166.6 ± 100.6 ^g μg | 92.4 ± 49.4 ^f μg | 3 to 4 | 20.7 ± 8.0 | 108 ± 39 | 21.6 ± 5.9 | 8.4 ± 5.7 | 12 ± 5 | 0.171 ± 0.07 | – | – | – | –
O=C(O)c1ccc(O)c(OC2OC(C(=O)O)C(O)C(O)C2O)c1 (stereo not shown) [PCA-3-glucuronide] | 22.9 ± 22.0 ^g μg | 49.0 ^b μg | 1 to 2 | 197.7 ± 41.2 | 301 ± 72 | 18 ± 15.6 | 2.7 ± 1 | 11 ± 3 | 0.06 ± 0.038 | – | – | – | –
O=C(O)c1ccc(OC2OC(C(=O)O)C(O)C(O)C2O)c(O)c1 (stereo not shown) [PCA-4-glucuronide] | 16.1 ± 17.5 µg | 20.4 ± 16.2 ^i μg | – | 100.3 ± 30.2 | 233 ± 65 | – | – | – | – | 68 ± 61 | 3.8 ± 0.8 | 0.618 ± 0.489 | t1/2 ([4]; serum elimination half-life, single 500 mg oral 13C5-C3G, mean ± SEM): 19.4 ± 3.1 h
O=Cc1c(O)cc(O)cc1O [Phloroglucinaldehyde] | 2.1 ± 1.3 ^e μg | 111.3 ± 78.7 ^f μg | 6 to 24 | 66.7 ± 21.3 | 170 ± 42 | – | 2.8 ± 1.1 | 582 ± 536 | 7.88 ± 7.77 | – | – | – | –
O=C(O)c1ccc(O)c(O)c1 [Protocatechuic acid (PCA), Protocatechuic acid] | 360.9 ± 278.1 ^c μg | 221.8 ± 134.9 ^d μg | 1 to 2 | 71.6 ± 20.9 | 337 ± 117 | 9.9 ± 3.4 | 3.3 ± 0.7 | 147 | 1.38 ± 0.76 | 146 ± 74 | – | – | production of TNF-α, IL-1β, NO, PGE2 and gene expression of NOS and COX-2 [5]: suppress; plasma VCAM-1 levels [6]: reduced; Recovery 6–24 h ([2]; listed as PCA): 360.9 µg; VCAM-1 protein and mRNA [7]: reduce
COc1cc(C(=O)O)ccc1OC1OC(C(=O)O)C(O)C(O)C1O (stereo not shown) [VA-4-glucuronide] | 3.3 ^b μg | 9.5 ± 7.9 ^g μg | – | 618.4 ± 109.7 | 762 ± 124 | – | – | – | – | 24 ± 4 | 4.8 ± 0.4 | 0.074 ± 0.011 | Recovery 0–6 h ([2]; 0–6 h (only 2 participants provided voids)): 3.6 ^b μg
COc1cc(C(=O)O)ccc1O [Vanillic acid (VA), Vanillic acid] | 54.7 ± 1.6 ^h μg | 49.3 ± 21.4 ^g μg | 1 to 2 | 960.4 ± 350.0 | 3412 ± 312 | 6.4 | 12.5 ± 11.5 | 1840 ± 838 | – | – | – | – | plasma IL-6 [8]: reductions
